Our source for the IC50 and melting point values is patent US6458815B2, “Sulfonamide compounds and methods of treating atherosclerosis and restenosis” (Warner-Lambert Company, priority 1998, dated 2002).

The subject of data set [1] is Lp(a) production in HepG2^K17 cells. As to the kind of experiment: LPA3 screen: inhibition of Lp(a) production in transfected HepG2 cells, Lp(a) in media by ELISA. Type of data set: cell-based. As to conditions: Homo sapiens, 8 hours incubation, 0.3 to 50 μM compound, Lp(a) normalized for total protein. As for the experimental part:
The LPA3 screen is used to identify compounds that inhibit Lp(a) production. This screen employs permanently transfected HepG2 cells (HepG2^K17) that are generated using an apo(a) 17-kringle cDNA expression construct (pcDNA-AMP, In Vitrogen, Carlsbad, Calif.) in accordance with methods that are well-known in molecular biology.
HepG2^K17 cells are seeded in 96-well plates at a density of 75,000 cells per well in 0.25 mL of Dulbecco's Modified Eagle Media (DMEM) containing 10% fetal bovine serum (FBS). Seeded plates are incubated overnight in a 37° C., 5% CO2/95% O2 incubator. The media is removed, replaced with (1) fresh media, or (2) fresh media plus 0.3 to 50 μM of a compound of the present invention in 20 μL of PBS, and the plates returned to the incubator for 8 hours. After the additional 8 hours of incubation, Lp(a) is assayed in the media by ELISA. Cells are digested with 0.5N NaOH overnight and assayed for total protein. Lp(a) values are normalized for total protein content.
In general terms: ELISA stands for enzyme-linked immunosorbent assay.

Data set [2] deals with apolipoprotein(a), [apo(a)], apolipoproteinB-100, [apoB-100], coupling reaction that generates Lp(a) (Homo sapiens, UniProt P04114+P08519). As to the kind of experiment: LPABC screen: lipoprotein(a) biochemical coupling assay, Lp(a) content by ELISA. As to conditions: recombinant apo(a) 17-kringle (293 cell conditioned media) + HepG2 conditioned media, 67 minutes at 37° C., 0.3 to 50 μM compound. On the procedure:
The lipoprotein(a), [Lp(a)], biochemical coupling assay (LPABC) is used to characterize inhibitors of the apolipoprotein(a), [apo(a)], apolipoproteinB-100, [apoB-100], coupling reaction that generates Lp(a). Conditioned media from 293 cells (ATCC CRL-1573), permanently transfected with an apo(a) 17-kringle cDNA expression construct (pcDNA-AMP, In Vitrogen, Carlsbad, Calif.) using standard molecular biology techniques, was used as a source of recombinant apo(a) is diluted 1:3 with phosphate buffered saline (PBS) and 90 μL is pipetted into each well of a 96-well plate and placed into 37° C. incubator for 10 minutes. Twenty microliters of a 0.3 to 50 μM solution of a compound of the present invention in PBS is added to the warmed plate. Ninety microliters of HepG2 (ATCC HB-8065) cell conditioned media diluted 1:3 with PBS is added to the apo(a)/compound mixture and mixed by pipetting up and down 5 times. The reaction is incubated for 67 minutes in a 37° C. incubator. A 100 μL aliquot of the reaction is removed and assayed for its Lp(a) content by an enzyme linked immunosorbent assay (ELISA).

Take `CCOC(=O)C(c1cc(C(C)(C)C)c(O)c(C(C)(C)C)c1)N(CC1CCCCC1)S(C)(=O)=O` (stereo not drawn) [Example 2, (Cyclohexylmethyl-methanesulfonyl-amino)-(3,5-Di-tert-butyl-4-hydroxy-phenyl)-acetic Acid Ethyl Ester]: the half-inhibitory concentration (IC50) in data set [1] amounted to 27.2 µM; in data set [2], 1.92 µM.
As for `CC(C)(C)c1cc(CN(c2cccnc2)S(=O)(=O)c2cccc([N+](=O)[O-])c2)cc(C(C)(C)C)c1O` [Example 10, N-(3,5-Di-tert-butyl-4-hydroxy-benzyl)-3-nitro-N-pyridin-3-yl-benzenesulfonamide], the melting point was in the range of 99 to 107 °C. In addition, in data set [1], half-maximal inhibition (IC50) required 7.4 µM. Moreover, in data set [2], the IC50 was determined as 4 µM.
Taken in the same sequence, the figures for `CC(C)(C)c1ccc(S(=O)(=O)N(Cc2cc(C(C)(C)C)c(O)c(C(C)(C)C)c2)c2cccnc2)cc1` [Example 13, N-(3,5-Di-tert-butyl-4-hydroxy-benzyl)-4-tert-butyl-N-pyridin-3-yl-benzenesulfonamide] were 155 to 156 °C, 23.6 µM and 11.8 µM.
In turn, `CC(C)(C)c1cc(CN(c2cccnc2)S(C)(=O)=O)cc(C(C)(C)C)c1O` [Example 12, N-(3,5-Di-tert-butyl-4-hydroxy-benzyl)-N-pyridin-3-yl-methanesulfonamide] returned a melting point of 133 to 134 °C. The compound further had an IC50 in data set [1] of 41.2 µM. The IC50 in data set [2] was 5.58 µM.
On to `COc1ccc(N(Cc2cc(C(C)(C)C)c(O)c(C(C)(C)C)c2)S(=O)(=O)c2cccs2)cn1` [Example 6, Thiophene-2-sulfonic Acid (3,5-di-tert-butyl-4-hydroxy-benzyl)-6-methoxy-pyridin-3-yl-amide], for which, in data set [2], the IC50 was 3.15 µM.
`Cc1ccc(S(=O)(=O)N(Cc2cc(C(C)(C)C)c(O)c(C(C)(C)C)c2)c2ccc(Cl)nc2)cc1` [Example 16, N-(6-Chloro-pyridin-3-yl)-N-(3,5-di-tert-butyl-4-hydroxybenzyl)-4-methyl-benzenesulfonamide] yielded a melting point of 152 to 153 °C. For the same compound, in data set [2], the IC50 was determined as 2.1 µM.
Taken in the same sequence, the figures for `Cc1ccc(S(=O)(=O)N(Cc2cc(C(C)(C)C)c(O)c(C(C)(C)C)c2)c2cccnc2Cl)cc1` [Example 14, N-(2-Chloro-pyridin-3-yl)-N-(3,5-di-tert-butyl-4-hydroxy-benzyl)-4-methyl-benzenesulfonamide] were 117 to 119 °C and 2.1 µM.
`CC(C)(C)c1cc(CN(c2cccnc2)S(=O)(=O)c2cccc(Br)c2)cc(C(C)(C)C)c1O` [Example 19, N-(3,5-di-tert-butyl-4-hydroxybenzyl)-3-bromo-N-pyridin-3-yl-benzenesulfonamide]: the melting point lay in the range of 129 to 131 °C. The concentration for half-maximal inhibition (IC50) in data set [2] is 2.76 µM.
Taken in the same sequence, the figures for `COc1ccc(N(Cc2cc(C(C)(C)C)c(O)c(C(C)(C)C)c2)S(=O)(=O)c2ccc(C)cc2)cn1` [Example 18, N-(3,5-di-tert-butyl-4-hydroxy-benzyl)-N-(6-methoxy-pyridin-3-yl)-4methyl-benzenesulfonamide] were 127 to 129 °C and 2.42 µM.
In turn, `CC(C)(C)c1cc(CN(c2cccnc2)S(=O)(=O)c2ccc([N+](=O)[O-])cc2)cc(C(C)(C)C)c1O` [Example 5, N-(3,5-Di-tert-butyl-4-hydroxy-benzyl)-4-nitro-N-pyridin-3-yl-benzenesulfonamide] gave a melting point of 159 to 160 °C. The compound also registered a concentration for half-maximal inhibition (IC50) in data set [1] of 9.4 µM. In data set [2], the IC50 stood at 2.6 µM.
Taken in the same sequence, the figures for `CC(C)(C)c1cc(CN(c2cccnc2)S(=O)(=O)c2cccs2)cc(C(C)(C)C)c1O` [Example 7, Thiophene-2-sulfonic Acid (3,5-di-tert-butyl-4-hydroxy-benzyl)-pyridin-3-yl-amide] were 118 to 120 °C, 8.9 µM and 3.5 µM.
Taken in the same sequence, the figures for `CC(=O)Nc1ccc(S(=O)(=O)N(Cc2cc(C(C)(C)C)c(O)c(C(C)(C)C)c2)c2cccnc2)cc1` [Example 8, N-(3,5-Di-tert-butyl-4-hydroxy-benzyl)-4-acetamido-N-pyridin-3-yl-benzenesulfonamide] were 167 to 169 °C, 12.5 µM and 3.5 µM.
Consider `CC(C)(C)c1cc(CN(c2cccnc2)S(=O)(=O)c2ccccc2Br)cc(C(C)(C)C)c1O` [Example 15, N-(3,5-di-tert-butyl-4-hydroxybenzyl)-2-bromo-N-pyridin-3-yl-benzenesulfonamide], for which the melting point was 105 to 107 °C. The IC50 in data set [2] is 2.43 µM.
`CC(C)(C)c1cc(CN(c2cccnc2)S(=O)(=O)c2ccc(-c3ccccn3)s2)cc(C(C)(C)C)c1O` [Example 1, 5-Pyridin-2-yl-thiophene-2-sulfonic Acid (3,5-di-tert-butyl-4-hydroxy-benzyl)-pyridin-3-yl-amide]: the IC50 in data set [2] came to 1.66 µM.
In turn, `CC(C)(C)c1cc(CN(c2cccnc2)S(=O)(=O)c2ccccc2)cc(C(C)(C)C)c1O` [Example 11, N-(3,5-Di-tert-butyl-4-hydroxy-benzyl)-3-N-pyridin-3-yl-benzenesulfonamide] gave a melting point of 143 to 145 °C. The 50% inhibitory concentration (IC50) in data set [1] amounted to 16.2 µM. In data set [2], the half-maximal inhibitory concentration (IC50) worked out at 4.12 µM.
The compound `COc1ccc(S(=O)(=O)N(Cc2cc(C(C)(C)C)c(O)c(C(C)(C)C)c2)c2cccnc2)cc1` [Example 9, N-(3,5-Di-tert-butyl-4-hydroxy-benzyl)-4-methoxy-N-pyridin-3-yl-benzene Sulfonamide] had a melting point of 142 to 143 °C. This compound also showed an IC50 in data set [1] of 5.8 µM. Besides, the 50% inhibitory concentration (IC50) in data set [2] turned out to be 3.7 µM.
The compound `CC(C)(C)c1cc(CN(c2cccnc2)S(=O)(=O)c2ccc3ccccc3c2)cc(C(C)(C)C)c1O` [Example 17, N-(3,5-di-tert-butyl-4-hydroxybenzyl)-2-naphthalene-N-pyridin-3-yl-sulfonamide] yielded a melting point of 160 to 171 °C. The 50% inhibitory concentration (IC50) in data set [2] came to 7.1 µM.
The compound `Cc1ccc(S(=O)(=O)N(Cc2cc(C(C)(C)C)c(O)c(C(C)(C)C)c2)c2cccnc2)cc1` [Example 3, N-(3,5-Di-tert-butyl-4-hydroxy-benzyl)-4-methyl-N-pyridin-3-yl-benzenesulfonamide] returned a melting point of 121 to 123 °C. The compound further yielded a half-inhibitory concentration (IC50) in data set [1] of 6.9 µM. In data set [2], the IC50 was 3.94 µM.
`CC(C)(C)c1cc(CN(c2cccnc2)S(=O)(=O)c2ccc(F)cc2)cc(C(C)(C)C)c1O` [Example 4, N-(3,5-Di-tert-butyl-4-hydroxy-benzyl)-4-fluoro-N-pyridin-3-yl-benzenesulfonamide]: the values for the IC50 in data set [1] and in data set [2] were 7.5 µM and 2.6 µM, respectively.

What is called IC50 is the concentration at which inhibition is half-maximal. What is called melting point is the temperature, or range, at which the solid turns liquid.
